Test results as given in patent US20080299109A1, “MECHANISM OF ASTRICYTE-NEURON SIGNALING” (Korea Institute of Science and Technology, priority 2007, published 2008).

Tests used:
CA1 pyramidal neurons = test: Ca2+ dye imaging of CA1 pyramidal neurons in hippocampal slices; type: cell-based, rat; settings: thrombin 30 nM, TFLLR 30 μM, trans-ACPD 100 μM, (S)-3,5-dihydroxyphenylglycine 30 μM
Procedure: (§1) Young rats (Sprague-Dawley, age P15-P20) or mice (C57/B16, age P14-19) were deeply anesthetized with isoflurane and decapitated. The brain was rapidly removed and submerged in an ice-cold oxygenated artificial cerebrospinal fluid (ACSF) comprised of 130 mM NaCl, 24 mM NaHCO3, 3.5 mM KCl, 1.25 mM NaH2PO4, 1 mM CaCl2,3 mM MgCl2, and 10 mM glucose saturated with 95% O2/5% CO2, at pH 7.4.
The external solution contained 1 μM TTX. Throughout the experiments, −5 mV voltage steps (15 ms duration) were applied at 30 sec intervals from a holding potential of −70 mV to continuously monitor the holding current, series resistance, and membrane input resistance. After entering whole-cell mode, the CA1 pyramidal cells in slices were maintained for 20 min to allow for dye filling before image acquisition using a Princeton Micromax camera.
After the baseline period, TFLLR (30-100 μM) was applied, and images were acquired every 3 sec with a 25 ms exposure to 450-490 nm light for each image. Ca^2+-dependent fluorescence intensity (520 nm) was measured in cell bodies and processes by using Axon Imaging Workbench (v2.2.1) and expressed as ratio image of (F-Fo)/Fo, where Fo is the fluorescence intensity before drug treatment.

[1] = tested on: cultured wild-type mouse astrocytes; test: Fura-2 intracellular Ca2+ imaging in cultured wild-type astrocytes; type: cell-based; settings: 30 nM thrombin
Procedure: Cultured astrocytes were prepared from P0-P3 postnatal mice obtained from KIST SPF. The cerebral cortex was dissected free of adherent meninges, minced, and dissociated into single cell suspension by trituration through a Pasteur pipette. All procedures involving the use of animals were reviewed and approved by the Emory University IACUC. Dissociated cells were plated onto either 12 mm glass coverslips or 6 well plates coated with 0.1 mg/ml poly-D-lysine. Cells were grown in a DMEM media (Gibco, cat# 11960-044) supplemented with 25 mM glucose, 10% heat-inactivated horse serum, and 10% heat-inactivated fetal bovine serum, 2 mM glutamine, and 1000 units/ml penicillin-streptomycin. Cultures were maintained at 37° C. in a humidified 5% CO2-containing atmosphere. […] In some experiments, the culture media was replaced 24 hours after plating with DMEM with all added components except glutamine, and cultures were maintained for 4 days before experimentation in glutamine-free media.
Cultured astrocytes were incubated with 5 µM Fura2-AM in […] pluronic acid (Molecular Probes) for 30 min at room temperature, and subsequently transferred to a microscope stage for imaging. The external solution contained 150 mM NaCl, 10 mM HEPES, 3 mM KCl, 2 mM CaCl2, 2 mM MgCl2, and 5.5 mM glucose, and the pH was adjusted to pH 7.3 and osmolarity to 325 mOsm. Intensity images of a 510 nm wavelength were taken at 340 nm and 380 nm excitation wavelengths using either a Micromax Camera (Princeton) or an intensified video camera (PTI), and the two resulting images were used for ratio calculations using Axon Imaging Workbench version 2.2.1.

CA1 pyramidal cells = test: Current clamp membrane potential of CA1 pyramidal cells in hippocampal slices; type: cell-based, rat; settings: 30 nM thrombin
Procedure: as §1
The hemisected brain was glued onto the stage of a vibrating microtome (Leica VT1000 S) and sections of 300 μm thickness were cut and stored in an incubation chamber at room temperature for about 1 h before use. For voltage clamp experiments, the solution used to fill the electrodes was comprised of 140 mM Cs-MeSO4, 10 mM HEPES, 7 mM NaCl, 4 mM Mg-ATP, and 0.3 mM Na3-GTP; the solution for current clamp recordings was comprised of 140 mM K-MeSO4, 10 mM HEPES, 7 mM NaCl, 4 mM Mg-ATP, and 0.3 mM Na3-GTP, and supplemented with 1 mM QX314; and 1 mM QX314 was omitted from some current clamp recordings (e.g., FIG. 9e).
Slices were placed on the stage of an upright microscope underneath a platinum and nylon restraining grid, and superfused with oxygenated ACSF at room temperature (23° C.), some experiments are performed at 34° C. by a temperature controller (TC-344B, Warner, Hamden). The standard ACSF recording solution was comprised of 130 mM NaCl, 24 mM NaHCO3, 3.5 mM KCl, 1.25 mM NaH2PO4, 1.5 mM CaCl2, 1.5 mM MgCl2, and 10 mM glucose saturated with 95% O2/5% CO2, at pH 7.4. For some experiments 0.5-1 μM TTX, 10 μM NBQX, or 10-20 μM bicuculline were added to the extracellular solution, extracellular Mg^2+ was reduced to 5 μM, and/or extracellular Ca^2+ raised to 2 mM.
Visually guided whole-cell patch recordings were obtained from CA1 pyramidal neurons in a voltage clamp or current clamp configuration using an Axopatch 200A (Axon Instruments) and a borosilicate patch pipette of 5-7 MΩ resistance. […] Records were filtered at 5 kHz and digitized at 20 kHz using a Digidata 1200 A/D board.
Synaptic responses were evoked by applying 0.1 ms current injection (1-100 μA) to a bipolar stimulating electrode placed in the stratum radiatum. Thrombin (Calbiochem) concentration was determined as described by Gingrich et al. (2000) using conversion of 1 U/ml=10 nM. TFLLR and thrombin were applied by gravity perfusion at 1.0 ml/min, with extensive washing of perfusion lines, chamber, and objective between experiments to remove all residual thrombin, which has been reported to irreversibly cleave and PAR1 at a pM concentration. Removal of all thrombin ensured that PAR1 receptors were not pre-cleaved by residual thrombin prior to experimentation.

## thrombin
CA1 pyramidal neurons
  somatic fluorescence of Ca^2+-sensitive dyes in CA1 pyramidal neurons: no significant increase
[1]; without or after pretreatment with 1 μM BMS200261
  change in Fura-2 ratio: 150.9±17.4%
[1]; 30 μM TFLLR, 10 μM bradykinin, 50 μM 2-methyl-thio-ATP, 10 μM ATP
  level of astrocytic intracellular Ca^2+ (Fura-2 fluorescence ratio): robust increase
CA1 pyramidal cells; 1.5 mM Mg^2+, n=22
  membrane depolarization: 5.7±0.9 mV
CA1 pyramidal cells; with or without APV 100 μM
  depolarization of the membrane potential at 23° C.: 5.8±1.7 mV
  depolarization of the membrane potential at 34° C.: 4.3±1.0 mV
